One series can be described thus: in vitro. It counts as cell-based, murine. The note with it: mouse.
Series [1] has as its system Raw264.7 macrophage cells. The series can be described thus: in vitro. The note with it: Example 1 results. It counts as cell-based, murine.

The values that follow come from patent US10463710B2, “Short synthetic peptide for the treatment and/or prophylaxis of autoimmune and inflammatory disorders” (MacKay Memorial Hospital, priority 2015, dated 2019).

“Also recorded” adds a separate entry of the source. Ends that are not written are not given here.

Regarding `CC(=O)N[C@@H](CC(=O)O)C(=O)N[C@@H](CC(C)C)C(=O)N[C@@H](Cc1ccc(O)cc1)C(=O)N[C@@H](CCCNC(=N)N)C(=O)N[C@@H](C(=O)N[C@@H](CCCNC(=N)N)C(=O)N[C@@H](CO)C(N)=O)C(C)C` [7-mer DV, NH2-Asp-Leu-Tyr-Arg-(D-Val)-Arg-Ser-COOH], the viability (as a rule, a read-out of living cells in per cent, often relative to untreated cells) at 24 h, 20 μM in “in vitro” (Rar264.7 cell viability) came to 57.9 ± 6.2%. As for `CC(=O)N[C@H](C(=O)N[C@@H](CC(C)C)C(=O)N[C@@H](Cc1ccc(O)cc1)C(=O)N[C@@H](CCCNC(=N)N)C(=O)N[C@H](C(=O)N[C@@H](CCCNC(=N)N)C(=O)N[C@@H](CO)C(N)=O)C(C)C)C(C)C` [7-mer (D→V), NH2-Val-Leu-Tyr-Arg-Val-Arg-Ser-COOH], the “bioactivity / inhibitory activity relative to 7-mer (in words)” value in series [1] is recorded as “relatively the same bioactivity that is similar to the 7-mer”; in series [1] (listed as 7-mer (D→N)) it was “could sustain 7-mer bioactivity, only partly”. Besides, the viability at 24 h, 20 μM in “in vitro” (Raw264.7 cell viability) amounted to 56.8 ± 3.53%.

Consider `CC(=O)N[C@@H](C)C(=O)N[C@@H](CC(C)C)C(=O)N[C@@H](Cc1ccc(O)cc1)C(=O)N[C@@H](CCCNC(=N)N)C(=O)N[C@H](C(=O)N[C@@H](CCCNC(=N)N)C(=O)N[C@@H](CO)C(N)=O)C(C)C` [7-mer Da, NH2-Ala-Leu-Tyr-Arg-Val-Arg-Ser-COOH], for which the “bioactivity / inhibitory activity relative to 7-mer (in words)” value in series [1] was “could sustain the inhibitory activity”. Further, the viability at 24 h, 20 μM in the series “in vitro” (Raw264.7 cell viability) was found to be 52.9 ± 0.84%. Turning to `CC[C@H](C)[C@H](NC(=O)[C@H](CCCNC(=N)N)NC(=O)[C@H](Cc1c[nH]c2ccccc12)NC(=O)[C@H](CC(C)C)NC(=O)[C@H](CC(=O)O)NC(C)=O)C(=O)N[C@@H](CCCNC(=N)N)C(=O)N[C@@H](CO)C(N)=O` [7-mer WI, NH2-Asp-Leu-Trp-Arg-Ile-Arg-Ser-COOH], in series [1], the “bioactivity / inhibitory activity relative to 7-mer (in words)” value was “could sustain 7-mer bioactivity, only partly”. In addition, in the series “in vitro” (Raw264.7 cell viability), the viability at 24 h, 20 μM stood at 77.9 ± 2.87%. As to `CC(=O)N[C@@H](CC(N)=O)C(=O)N[C@H](C(=O)N[C@@H](Cc1ccc(O)cc1)C(=O)N[C@@H](CCCNC(=N)N)C(=O)N[C@H](C(=O)N[C@@H](CCCNC(=N)N)C(=O)N[C@@H](CO)C(N)=O)C(C)C)C(C)C` [7-mer NV, NH2-Asn-Val-Tyr-Arg-Val-Arg-Ser-COOH], the “bioactivity / inhibitory activity relative to 7-mer (in words)” value in series [1] is recorded as “could sustain 7-mer bioactivity, only partly”. The viability at 24 h, 20 μM in “in vitro” (Raw264.7 cell viability) was determined as 74.8 ± 1.73%. As for `CC[C@H](C)[C@H](NC(=O)[C@H](CC(=O)O)NC(C)=O)C(=O)N[C@@H](Cc1ccc(O)cc1)C(=O)N[C@@H](CCCNC(=N)N)C(=O)N[C@H](C(=O)N1CCC[C@H]1C(=O)N[C@@H](CO)C(N)=O)C(C)C` [7-mer IP, NH2-Asp-Ile-Tyr-Arg-Val-Pro-Ser-COOH], the “bioactivity / inhibitory activity relative to 7-mer (in words)” value in series [1] is listed as “could sustain 7-mer bioactivity, only partly”. The viability at 24 h, 20 μM in “in vitro” (Raw264.7 cell viability) turned out to be 81.7 ± 4.5%. Take `CC(=O)N[C@@H](CC(=O)O)C(=O)N[C@@H](CC(C)C)C(=O)N[C@@H](C)C(=O)N[C@@H](CCCNC(=N)N)C(=O)N[C@H](C(=O)N[C@@H](CCCNC(=N)N)C(=O)N[C@@H](CO)C(N)=O)C(C)C` [7-mer Ya, NH2-Asp-Leu-Ala-Arg-Val-Arg-Ser-COOH]: the viability at 24 h, 20 μM in the series “in vitro” (Raw264.7 cell viability) is 97.6 ± 0.56%. As for `CC(=O)N[C@@H](CC(C)C)C(=O)N[C@@H](CC(C)C)C(=O)N[C@@H](Cc1ccc(O)cc1)C(=O)N[C@@H](CCCNC(=N)N)C(=O)N[C@H](C(=O)N[C@@H](CCCNC(=N)N)C(=O)N[C@@H](CO)C(N)=O)C(C)C` [7-mer (D→L), NH2-Leu-Leu-Tyr-Arg-Val-Arg-Ser-COOH], in series [1], the “bioactivity / inhibitory activity relative to 7-mer (in words)” value is “could sustain 7-mer bioactivity, only partly; also recorded: relatively the same bioactivity that is similar to the 7-mer”. Further, in the series “in vitro” (Raw264.7 cell viability), the viability at 24 h, 20 μM is 57.6 ± 2.65%.

As for “NH2-Asp-Leu-Tyr-Arg-Val-Arg-COOH (DLYRVR; not fully specified (N-terminus, C-terminus); printed as NH2-Asp-Leu-Tyr-Arg-Val-Arg-COOH) [control peptide, serine residue of the 7-mer deleted, reference compound]”, in series [1], the “bioactivity / inhibitory activity relative to 7-mer (in words)” value is “does not possess any biological function”. Consider `CC(=O)N[C@@H](CC(=O)O)C(=O)N[C@@H](CC(C)C)C(=O)N[C@@H](Cc1ccc(O)cc1)C(=O)N[C@@H](CCCNC(=N)N)C(=O)N[C@@H](CC(C)C)C(=O)N[C@@H](CCCNC(=N)N)C(=O)N[C@@H](CO)C(N)=O` [7-mer (V→L), NH2-Asp-Leu-Tyr-Arg-Leu-Arg-Ser-COOH], for which the “bioactivity / inhibitory activity relative to 7-mer (in words)” value in series [1] is “could sustain 7-mer bioactivity, only partly; also recorded: relatively the same bioactivity that is similar to the 7-mer”. For the same compound, in “in vitro” (Raw264.7 cell viability), the viability at 24 h, 20 μM came to 61.1 ± 3.96%. `CC(=O)N[C@@H](CC(=O)O)C(=O)N[C@@H](CC(C)C)C(=O)N[C@@H](Cc1ccc(O)cc1)C(=O)N[C@@H](CCCNC(=N)N)C(=O)N[C@H](C(=O)N[C@@H](CCCNC(=N)N)C(=O)N[C@H](CO)C(N)=O)C(C)C` [7-mer DS, NH2-Asp-Leu-Tyr-Arg-Val-Arg-(D-Ser)-COOH]: the “bioactivity / inhibitory activity relative to 7-mer (in words)” value in series [1] is given as “lose its biological activity”. Besides, the viability at 24 h, 20 μM in the series “in vitro” (Rar264.7 cell viability) stood at 107 ± 2.23%.

With `CC(=O)N[C@@H](CC(=O)O)C(=O)N[C@@H](CC(C)C)C(=O)N[C@@H](Cc1ccc(O)cc1)C(=O)N[C@@H](CCCNC(=N)N)C(=O)N[C@H](C(=O)N[C@@H](C)C(=O)N[C@@H](CO)C(N)=O)C(C)C` [7-mer R2a, NH2-Asp-Leu-Tyr-Arg-Val-Ala-Ser-COOH], the viability at 24 h, 20 μM in “in vitro” (Raw264.7 cell viability) turned out to be 94.6 ± 1.65%.

`CC(=O)N[C@@H](CC(=O)O)C(=O)N[C@@H](CC(C)C)C(=O)N[C@@H](Cc1ccc(O)cc1)C(=O)N[C@@H](CCCNC(=N)N)C(=O)N[C@@H](CCC(N)=O)C(=O)N[C@@H](CCCCN)C(=O)N[C@@H](CO)C(N)=O` [7-mer QK, NH2-Asp-Leu-Tyr-Arg-Gln-Lys-Ser-COOH]: the “bioactivity / inhibitory activity relative to 7-mer (in words)” value in series [1] is listed as “could sustain 7-mer bioactivity, only partly”. Also, the viability at 24 h, 20 μM in the series “in vitro” (Raw264.7 cell viability) turned out to be 77.7 ± 3.02%.

Take `CC(=O)N[C@@H](Cc1ccccc1)C(=O)N[C@@H](CC(C)C)C(=O)N[C@@H](Cc1ccc(O)cc1)C(=O)N[C@@H](CCCNC(=N)N)C(=O)N[C@H](C(=O)N[C@@H](CCCNC(=N)N)C(=O)N[C@@H](CO)C(N)=O)C(C)C` [7-mer (D→F), NH2-Phe-Leu-Tyr-Arg-Val-Arg-Ser-COOH]: in series [1], the “bioactivity / inhibitory activity relative to 7-mer (in words)” value is “could sustain 7-mer bioactivity, only partly; also recorded: relatively the same bioactivity that is similar to the 7-mer”. For the same compound, the viability at 24 h, 20 μM in the series “in vitro” (Raw264.7 cell viability) is 61.9 ± 4.91%. On to `CC(=O)N[C@@H](CC(=O)O)C(=O)N[C@@H](CC(C)C)C(=O)N[C@@H](Cc1ccc(O)cc1)C(=O)N[C@@H](CCCNC(=N)N)C(=O)N[C@H](C(=O)N[C@@H](CCC(N)=O)C(=O)N[C@@H](CO)C(N)=O)C(C)C` [7-mer (R2→Q), NH2-Asp-Leu-Tyr-Arg-Val-Gln-Ser-COOH], for which, in series [1], the “bioactivity / inhibitory activity relative to 7-mer (in words)” value is “could sustain 7-mer bioactivity, only partly”. The viability at 24 h, 20 μM in the series “in vitro” (Raw264.7 cell viability) worked out at 68.4 ± 1.25%. For the compound `CC(=O)N[C@@H](CC(=O)O)C(=O)N[C@@H](C)C(=O)N[C@@H](Cc1ccc(O)cc1)C(=O)N[C@@H](CCCNC(=N)N)C(=O)N[C@H](C(=O)N[C@@H](CCCNC(=N)N)C(=O)N[C@@H](CO)C(N)=O)C(C)C` [7-mer La, NH2-Asp-Ala-Tyr-Arg-Val-Arg-Ser-COOH], in series [1], the “bioactivity / inhibitory activity relative to 7-mer (in words)” value is on record as “could sustain the inhibitory activity”. For the same compound, the viability at 24 h, 20 μM in “in vitro” (Raw264.7 cell viability) amounted to 57.4 ± 1.71%. Consider `CC(=O)N[C@@H](CC(=O)O)C(=O)N[C@H](CC(C)C)C(=O)N[C@@H](Cc1ccc(O)cc1)C(=O)N[C@@H](CCCNC(=N)N)C(=O)N[C@H](C(=O)N[C@@H](CCCNC(=N)N)C(=O)N[C@@H](CO)C(N)=O)C(C)C` [7-mer DL, NH2-Asp-(D-Leu)-Tyr-Arg-Val-Arg-Ser-COOH], for which the “bioactivity / inhibitory activity relative to 7-mer (in words)” value in series [1] was “lose its biological activity”. Also, in the series “in vitro” (Rar264.7 cell viability), the viability at 24 h, 20 μM came out at 101 ± 1.48%. For the compound `CC(=O)N[C@@H](CC(=O)O)C(=O)N[C@@H](CC(C)C)C(=O)N[C@@H](Cc1ccc(O)cc1)C(=O)N[C@@H](C)C(=O)N[C@H](C(=O)N[C@@H](CCCNC(=N)N)C(=O)N[C@@H](CO)C(N)=O)C(C)C` [7-mer Ra, NH2-Asp-Leu-Tyr-Ala-Val-Arg-Ser-COOH], in “in vitro” (Raw264.7 cell viability), the viability at 24 h, 20 μM was found to be 99.5 ± 1.51%. Still for that read-out and setting: for `CC(=O)N[C@@H](CC(=O)O)C(=O)N[C@@H](CC(C)C)C(=O)N[C@@H](Cc1ccc(O)cc1)C(=O)N[C@@H](CCCNC(=N)N)C(=O)N[C@@H](C)C(=O)N[C@@H](CCCNC(=N)N)C(=O)N[C@@H](CO)C(N)=O` [7-mer Va, NH2-Asp-Leu-Tyr-Arg-Ala-Arg-Ser-COOH] the value was 97.7 ± 0.6%. Turning to `CC(=O)N[C@@H](CC(=O)O)C(=O)N[C@@H](CC(C)C)C(=O)N[C@@H](Cc1ccc(O)cc1)C(=O)N[C@@H](CCCCN)C(=O)N[C@H](C(=O)N1CCC[C@H]1C(=O)N[C@@H](CO)C(N)=O)C(C)C` [7-mer KP, NH2-Asp-Leu-Tyr-Lys-Val-Pro-Ser-COOH], the “bioactivity / inhibitory activity relative to 7-mer (in words)” value in series [1] is reported as “could sustain 7-mer bioactivity, only partly”. Further, the viability at 24 h, 20 μM in the series “in vitro” (Raw264.7 cell viability) stood at 81.2 ± 3.43%. On to `CC(=O)N[C@@H](CC(=O)O)C(=O)N[C@@H](CC(C)C)C(=O)N[C@@H](Cc1ccc(O)cc1)C(=O)N[C@@H](CCCNC(=N)N)C(=O)N[C@H](C(=O)N[C@H](CCCNC(=N)N)C(=O)N[C@@H](CO)C(N)=O)C(C)C` [7-mer DR2, NH2-Asp-(D-Leu)-Tyr-Arg-Val-(D-Arg)-Ser-COOH], for which the “bioactivity / inhibitory activity relative to 7-mer (in words)” value in series [1] is reported as “lose its biological activity”. For the same compound, the viability at 24 h, 20 μM in the series “in vitro” (Rar264.7 cell viability) amounted to 103 ± 2.51%. As for `CC(=O)N[C@@H](CC(=O)O)C(=O)N[C@@H](CC(C)C)C(=O)N[C@@H](Cc1ccc(O)cc1)C(=O)N[C@@H](CCCNC(=N)N)C(=O)N[C@H](C(=O)N[C@@H](CCCNC(=N)N)C(=O)N[C@@H](C)C(N)=O)C(C)C` [7-mer Sa, NH2-Asp-Leu-Tyr-Arg-Val-Arg-Ala-COOH], the viability at 24 h, 20 μM in “in vitro” (Raw264.7 cell viability) is 93.1 ± 2.47%.

For the compound `CC(=O)N[C@H](CC(=O)O)C(=O)N[C@@H](CC(C)C)C(=O)N[C@@H](Cc1ccc(O)cc1)C(=O)N[C@@H](CCCNC(=N)N)C(=O)N[C@H](C(=O)N[C@@H](CCCNC(=N)N)C(=O)N[C@@H](CO)C(N)=O)C(C)C` [7-mer DD, NH2-(D-Asp)-Leu-Tyr-Arg-Val-Arg-Ser-COOH], the viability at 24 h, 20 μM in the series “in vitro” (Rar264.7 cell viability) was 52.1 ± 1.45%.
